In brackets after ≈: the same amount, converted by molar mass.
What was measured:
Type in all cases: cell-based
E. coli strain MP-4 = test: Broth dilution MIC determination (CLSI) against E. coli strain MP-4; settings: Escherichia coli, MP4
Method: (§1) Minimum inhibitory concentrations (MICs) for macrolides described herein were determined for E. coli strain MP-4, K. pneumoniae strain MP-548, P. aeruginosa strain MP-3, A. baumannii strain MP-15, and S. aureus strain MP-12 using similar test procedures as published in US Pat. Pub. No. 2017/0305953. MIC data is represented as “+++” for values less than or equal to 4 mg/L, “++” for values of greater than or equal to 8 mg/L and less than 32 mg/L, and “+” for values of 32 mg/L or greater. ND indicates no data for a particular compound. CLSI standard procedures for broth dilution MIC determination were used.

[1] = tested on: K. pneumoniae strain MP-548; test: Broth dilution MIC determination (CLSI) against K. pneumoniae strain MP-548; settings: Klebsiella pneumoniae, MP548
Method: as §1

[2] = tested on: P. aeruginosa strain MP-3; test: Broth dilution MIC determination (CLSI) against P. aeruginosa strain MP-3; settings: Pseudomonas aeruginosa, MP3
Method: as §1

[3] = tested on: A. baumannii strain MP-15; test: Broth dilution MIC determination (CLSI) against A. baumannii strain MP-15; settings: Acinetobacter baumannii, MP15
Method: as §1

S. aureus strain MP-12 = test: Broth dilution MIC determination (CLSI) against S. aureus strain MP-12; settings: Staphylococcus aureus, MP12, strain MP-12
Method: as §1

Compound | MIC (E. coli strain MP-4) [µg/mL] | MIC [1] [µg/mL] | MIC [2] [µg/mL] | MIC [3] [µg/mL] | MIC (S. aureus strain MP-12) [µg/mL]
CC[C@H]1OC(=O)C(C)C(=O)[C@H](C)[C@@H](O[C@@H]2OC(CNCc3ccc(F)cn3)CC(N(C)C)C2O)[C@](C)(OC)C[C@@H](C)CN[C@H](C)[C@H]2NC(=O)O[C@@]21C (some centres unmarked) [Compound 38] | ≤ 4 | ≥ 32 | ≥ 32 | ≥ 32 | ≥ 32
CC[C@H]1OC(=O)C(C)C(=O)[C@H](C)[C@@H](O[C@@H]2O[C@H](C(=O)O)CC(N(C)C)[C@H]2O)[C@](C)(OC)C[C@@H](C)CN[C@H](C)[C@H]2NC(=O)O[C@@]21C (some centres unmarked) [Compound 193] | ≥ 32 | ≥ 32 | ≥ 32 | ≥ 32 | ≥ 32
CC[C@H]1OC(=O)C(C)C(=O)[C@H](C)[C@@H](OC2OC(CNC(C)C)CC(N(C)C)C2O)[C@](C)(OC)C[C@@H](C)CN[C@H](C)[C@H]2NC(=O)O[C@@]21C (some centres unmarked) [Compound 109, 3-Descladinosyl-3-oxo-6-O-methyl-N9a-desmethyl-11,12-dideoxy-12,11-(oxycarbonylimino)-6′-isopropylamino Azithromycin] | 8 to 32 (≈ 11.9 to 47.7 µM) | ≥ 32 | ≥ 32 | ≥ 32 | ≥ 32
CC[C@H]1OC(=O)C(C)C(=O)[C@H](C)[C@@H](O[C@@H]2O[C@H](CC(C)C)CC(N(C)C)[C@H]2O)[C@](C)(OC)C[C@@H](C)CN[C@H](C)[C@H]2NC(=O)O[C@@]21C (some centres unmarked) [Compound 184, 3-Desdadinosyl-3-oxo-6-O-methyl-N9a-desmethyl-11,12-dideoxy-12,11-(oxycarbonylimino)-6′-isopropyl Azithromycin] | ≤ 4 | 8 to 32 (≈ 12.2 to 48.8 µM) | ≥ 32 | 8 to 32 (≈ 12.2 to 48.8 µM) | ≤ 4
CC[C@H]1OC(=O)C(C)C(=O)[C@H](C)[C@@H](OC2OC(CN(C)C(C)C)CC(N(C)C)C2O)[C@](C)(OC)C[C@@H](C)CN[C@H](C)[C@H]2NC(=O)O[C@@]21C (some centres unmarked) [Compound 154, 3-Desdadinosyl-3-oxo-6-O-methyl-N9a-desmethyl-11,12-dideoxy-12,11-(oxycarbonylimino)-6′-isopropylmethylamino Azithromycin] | ≤ 4 | 8 to 32 (≈ 11.7 to 46.7 µM) | ≥ 32 | ≥ 32 | ≥ 32
CC[C@H]1OC(=O)C(C)C(=O)[C@H](C)[C@@H](OC2OC(CNC3(C)CC3)CC(N(C)C)C2O)[C@](C)(OC)C[C@@H](C)CN[C@H](C)[C@H]2NC(=O)O[C@@]21C (some centres unmarked) [Compound 133, 3-Descladinosyl-3-oxo-6-O-methyl-N9a-desmethyl-11,12-dideoxy-12,11-(oxycarbonylimino)-6′-(1-methyl-1-cyclopropylamino) Azithromycin] | ≤ 4 | 8 to 32 (≈ 11.7 to 46.9 µM) | ≥ 32 | 8 to 32 (≈ 11.7 to 46.9 µM) | 8 to 32 (≈ 11.7 to 46.9 µM)
CC[C@H]1OC(=O)C(C)C(=O)[C@H](C)[C@@H](O[C@@H]2OC(CNCc3ccc(F)cc3F)CC(N(C)C)C2O)[C@](C)(OC)C[C@@H](C)CN[C@H](C)[C@H]2NC(=O)O[C@@]21C (some centres unmarked) [Compound 31] | ≤ 4 | ≥ 32 | ≥ 32 | ≥ 32 | ≥ 32
CC[C@H]1OC(=O)C(C)C(=O)[C@H](C)[C@@H](OC2OC(CN(C)C3CC3)CC(N(C)C)C2O)[C@](C)(OC)C[C@@H](C)CN(C)[C@H](C)[C@H]2NC(=O)O[C@@]21C (some centres unmarked) [Compound 157, 3-Descladinosyl-3-oxo-6-O-methyl-11,12-dideoxy-12,11-(oxycarbonylimino)-6′-[N-(methyl)cyclopropylamino]Azithromycin] | ≤ 4 | 8 to 32 (≈ 11.5 to 45.9 µM) | ≥ 32 | 8 to 32 (≈ 11.5 to 45.9 µM) | 8 to 32 (≈ 11.5 to 45.9 µM)
CC[C@H]1OC(=O)C(C)C(=O)[C@H](C)[C@@H](O[C@@H]2OC(CNCc3ccc(Cl)cc3)CC(N(C)C)C2O)[C@](C)(OC)C[C@@H](C)CN[C@H](C)[C@H]2NC(=O)O[C@@]21C (some centres unmarked) [Compound 36] | ≤ 4 | ≥ 32 | ≥ 32 | ≥ 32 | ≥ 32
CC[C@H]1OC(=O)C(C)C(=O)[C@H](C)[C@@H](O[C@@H]2OC(CNCc3ccc(S(C)(=O)=O)cc3)CC(N(C)C)C2O)[C@](C)(OC)C[C@@H](C)CN[C@H](C)[C@H]2NC(=O)O[C@@]21C (some centres unmarked) [Compound 45] | ≥ 32 | ≥ 32 | ≥ 32 | ≥ 32 | ≥ 32
CC[C@H]1OC(=O)[C@@]2(C)CCO[C@](C)(C[C@@H](C)CN[C@H](C)[C@H]3NC(=O)O[C@@]31C)[C@H](O[C@@H]1O[C@H](CNC3CC3)C[C@H](N(C)C)[C@H]1O)[C@@H](C)C2=O [Compound 202] | ≤ 4 | ≤ 4 | ≥ 32 | 8 to 32 (≈ 11.7 to 47 µM) | ≤ 4
CC[C@H]1OC(=O)[C@@]2(C)CC/C(=N\O)CO[C@](C)(C[C@@H](C)CN[C@H](C)[C@H]3NC(=O)O[C@@]31C)[C@H](OC1OC(C)CC(N(C)C)C1O)[C@@H](C)C2=O (some centres unmarked) [Compound 227] | ≥ 32 | ≥ 32 | ≥ 32 | ≥ 32 | ≥ 32
CC[C@H]1OC(=O)[C@]2(C)CCO[C@](C)(C[C@@H](C)CN[C@H](C)[C@H]3NC(=O)O[C@@]31C)[C@H](O[C@@H]1O[C@H](CO)C[C@H](N(C)C)[C@H]1O)[C@@H](C)C2=O [Compound 194] | ≥ 32 | ≥ 32 | ≥ 32 | ≥ 32 | ≥ 32
CC[C@H]1OC(=O)[C@@](C)(F)C(=O)[C@H](C)[C@@H](O[C@@H]2OC(CNCc3cccc(-c4cncnc4)c3)CC(N(C)C)C2O)[C@](C)(OC)C[C@@H](C)C(=O)[C@H](C)[C@H]2NC(=O)O[C@@]21C (some centres unmarked) [Compound 93] | ≥ 32 | ≥ 32 | ≥ 32 | ≥ 32 | ≤ 4
CO[C@]1(C)C[C@@H](C)CN[C@H](C)[C@H]2NC(=O)O[C@]2(C)[C@@H](C)OC(=O)C(C)C(=O)[C@H](C)[C@H]1OC1OC(CNC2CC2)CC(N(C)C)C1O (some centres unmarked) [Compound 146, 3-Descladinosyl-3-oxo-6-O-methyl-N9a-desmethyl-11,12-dideoxy-12,11-(oxycarbonylimino)-6′-cyclopropylamino-13-methyl Azithromycin] | ≥ 32 | ≥ 32 | ≥ 32 | ≥ 32 | ≥ 32
CO[C@]1(C)C[C@@H](C)CN[C@H](C)[C@H]2NC(=O)O[C@]2(C)[C@@H](C)OC(=O)C(C)C(=O)[C@H](C)[C@H]1OC1OC(CN(C)CC2CC2)CC(N(C)C)C1O (some centres unmarked) [Compound 156, 3-Desdadinosyl-3-oxo-6-O-methyl-N9a-desmethyl-11,12-dideoxy-12,11-(oxycarbonylimino)-6′-methylcyclopropylmethyl-13-methyl Azithromycin] | ≥ 32 | ≥ 32 | ≥ 32 | ≥ 32 | ≥ 32
CC[C@H]1OC(=O)C(C)C(=O)[C@H](C)[C@@H](O[C@@H]2OC(CNc3cccc(F)c3)CC(N(C)C)C2O)[C@](C)(OC)C[C@@H](C)CN[C@H](C)[C@H]2NC(=O)O[C@@]21C (some centres unmarked) [Compound 48] | 8 to 32 (≈ 11.1 to 44.3 µM) | ≥ 32 | ≥ 32 | ≥ 32 | 8 to 32 (≈ 11.1 to 44.3 µM)
CC[C@H]1OC(=O)C(C)C(=O)[C@H](C)[C@@H](O[C@@H]2OC(CNCc3ccccc3)CC(N(C)C)C2O)[C@](C)(OC)C[C@@H](C)CN[C@H](C)[C@H]2NC(=O)O[C@@]21C (some centres unmarked) [Compound 28] | ≤ 4 | ≥ 32 | ≥ 32 | ≥ 32 | ≥ 32
CC[C@H]1OC(=O)[C@@](C)(F)C(=O)[C@H](C)[C@@H](O[C@@H]2OC(CNCc3ccccn3)CC(N(C)C)C2O)[C@](C)(OC)C[C@@H](C)C(=O)[C@H](C)[C@H]2NC(=O)O[C@@]21C (some centres unmarked) [Compound 100] | 8 to 32 (≈ 10.9 to 43.4 µM) | ≥ 32 | ≥ 32 | ≥ 32 | ≤ 4
CC[C@H]1OC(=O)[C@@]2(C)CCOC(C)(C[C@@H](C)CN(C(=O)C(F)(F)F)[C@H](C)[C@H]3NC(=O)O[C@@]31C)[C@H](O[C@@H]1OC(C)CC(N(C)C)C1O)[C@@H](C)C2=O (some centres unmarked) [Compound 220] | ≥ 32 | ≥ 32 | ≥ 32 | ≥ 32 | ≥ 32
CC[C@H]1OC(=O)C(C)C(=O)[C@H](C)[C@@H](O[C@@H]2O[C@H]([C@H](C)N3CCCCC3)CC(N(C)C)[C@H]2O)[C@](C)(OC)C[C@@H](C)CN[C@H](C)[C@H]2NC(=O)O[C@@]21C (stereo partly drawn) [Compound 179, 3-Descladinosyl-3-oxo-6-O-methyl-N9a-desmethyl-11,12-dideoxy-12,11-(oxycarbonylimino)-6′-((S)-1-(piperidin-1-yl)ethyl) Azithromycin] | ≤ 4 | 8 to 32 (≈ 11.3 to 45 µM) | ≥ 32 | ≥ 32 | ≥ 32
CC[C@H]1OC(=O)C(C)C(=O)[C@H](C)[C@@H](O[C@@H]2O[C@H](CCc3ccccc3)CC(N(C)C)[C@H]2O)[C@](C)(OC)C[C@@H](C)CN[C@H](C)[C@H]2NC(=O)O[C@@]21C (some centres unmarked) [Compound 186, 3-Descladinosyl-3-oxo-6-O-methyl-N9a-desmethyl-11,12-dideoxy-12,11-(oxycarbonylimino)-6′-benzyl Azithromycin] | ≤ 4 | 8 to 32 (≈ 11.4 to 45.5 µM) | ≥ 32 | 8 to 32 (≈ 11.4 to 45.5 µM) | ≤ 4
